Experimental data taken from patent US7071231B2, “Naphthalene ureas as glucose uptake enhancers” (Telik, Inc., priority 1999, dated 2006).

Tests used:
[1] = target: insulin-like growth factor type 1 (IGF-1) receptor (Homo sapiens, UniProt P08069); test: Selectivity: IGF-1 receptor phosphorylation; type: cell-based; settings: in the absence or presence of IGF-1
[2] = tested on: STZ/HFD rat; test: Blood glucose determination in the STZ/HFD rat model of Type 2 diabetes; type: in vivo; settings: STZ/HFD rat
Description: Blood Glucose Determination in the STZ/HFD Rat Model of Type 2 Diabetes
Representative compounds were also profiled in genetically normal rats given a high-fat diet followed by treatment with a low dose of streptozotocin (STZ/HFD). This treatment regimen recreates both the insulin resistance and the hyperglycemia seen in human Type 2 diabetes. Male CD rats (Jackson Labs, Bar Harbor Me.) were maintained according to NIH guidelines, housed two per cage, and fed either standard lab chow (Tekland Laboratory Diets, James Grain, San Jose, Calif.) or the same chow supplemented with chocolate bars, cookies, and potato chips such that their final diet contained 30% fat by weight (high-fat diet; HFD). After two weeks of this diet, the animals were given an injection of freshly-prepared streptozotocin (35 mg/kg, i.p.) and continued on the HFD. Animals that achieved glucose levels of 190 to 380 mg/dl were used in this study. At the end of the 12-hour light/dark cycle, and just prior to the experiment, the animals were moved to new cages with no food available until 4 hours after treatment. The compound or vehicle (PBS) was given p.o. by gavage, and blood was sampled by approved IACUC protocol using tail cap method. Glucose was determined using the Glucometer Elite (Bayer, Elkhart, Ind.).
The reduction was maximal (20%) 4 hours after the administration of Compound 15.

[3] = target: T1, insulin receptor (Rattus norvegicus, UniProt P15127); test: Rat muscle insulin receptor phosphorylation after oral dose; type: in vivo; settings: STZ/HFD rats, oral dose 30 mg/kg, muscle samples 0.5-6 hr (FIG. 12)
T1 construct: from tissue; host or cells: rat muscle (in vivo oral dosing)
Procedure: Rat Muscle Phosphorylation
Muscle is a particularly important tissue for taking up glucose from the blood in response to insulin receptor stimulation. Activation of muscle insulin receptors is, therefore, an important factor in the control of blood glucose levels. STZ/HFD rats prepared as in Example 18 were given an oral dose of Compound 15 (30 mg/kg), and muscle samples were harvested at different time points (0.5 hr, 1 hr, 2 hr, 3 hr, 4 hr, 6 hr) and homogenized in extraction buffer (50 mM Tris.HCl pH 7.4, 150 mM NaCl, 0.25% sodium deoxycholate, 1% NP40, 1 mM EGTA, 1 mM PMSF, 1 mM Na3VO4, 1 mM NaF, 1 ug/ml each of Aprotinin, Leupeptin and Pepstatin). The tissue homogenate was centrifuged at 12K for 30 min at 4° C., and the supernatants were saved. An equal protein amount from each sample was immunoprecipitated with anti-insulin receptor antibody for 2 hr at 4° C., followed by another 1 hr incubation with Protein G-Agarose beads. The immunecomplexes were washed three times with the extraction buffer, and the samples were boiled in 2× SDS-PAGE loading buffer for 5 min at 100° C. The samples were resolved in a 7.5% SDS-PAGE along with Amersham rainbow marker protein as a molecular weight standard. […]

[4] = tested on: 3T3 L1 fibroblasts; test: Glucose transport activity assay (14C-2-deoxy-D-glucose uptake); type: cell-based
How it was run: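 Differentiated 3T3 L1 adipocytes (IBMX/dexamethasone/insulin induction), serum-starved overnight, preincubated 30 min at 37 °C with compound ± insulin in pH 7.4 salt buffer, then 30 min with 5 μCi/ml 14C-2-deoxy-D-glucose. Lysate radioactivity counted; EC = concentration raising uptake above 150% of vehicle control.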

[5] = tested on: GLUT4 in 3T3 L1 adipocytes; test: Immunofluorescence analysis of GLUT4 mobilization; type: cell-based; settings: 56 μM Compound 15 alone, 1 hr at 37° C. (FIG. 6C)
Procedure: Immunofluorescence Analysis of GLUT4 Mobilization in 3T3 L1 Adipocytes Insulin-dependent transport of glucose into cells utilizes glucose transporter proteins, such as GLUT4. Stimulation with insulin causes these transporters to translocate from storage sites within the cell to the cell membrane, where they facilitate glucose entry. 3T3 L1 adipocytes were grown and differentiated as in Example 11, except that they were grown on a microscope chamber slide. The cells were serum-starved with 0.1% BSA in DMEM for 16 hrs and stimulated with 56 μM Compound 15 alone, 100 nM Insulin for 1 hr at 37° C. The cells were fixed with 3.5% paraformaldehyde for 5 min and permeabilized with 0.2% saponin in 1% BSA, TBS for 5 min followed by incubation with anti-GLUT4 antibody for 30 min at room temperature. The cells were extensively washed and incubated with FITC-conjugated secondary antibody for 30 min at room temperature.

[6] = target: CYP2C9 (Homo sapiens, UniProt P11712); test: P450 interactions: CYP2C9 inhibition; type: in vitro ADME; settings: human cytochromes P450
Description: A major pathway for elimination of drugs from the body, which may limit their effectiveness, is the cytochrome P450 system of the liver.

T1 sequence (P15127 764-1383 limits assumed): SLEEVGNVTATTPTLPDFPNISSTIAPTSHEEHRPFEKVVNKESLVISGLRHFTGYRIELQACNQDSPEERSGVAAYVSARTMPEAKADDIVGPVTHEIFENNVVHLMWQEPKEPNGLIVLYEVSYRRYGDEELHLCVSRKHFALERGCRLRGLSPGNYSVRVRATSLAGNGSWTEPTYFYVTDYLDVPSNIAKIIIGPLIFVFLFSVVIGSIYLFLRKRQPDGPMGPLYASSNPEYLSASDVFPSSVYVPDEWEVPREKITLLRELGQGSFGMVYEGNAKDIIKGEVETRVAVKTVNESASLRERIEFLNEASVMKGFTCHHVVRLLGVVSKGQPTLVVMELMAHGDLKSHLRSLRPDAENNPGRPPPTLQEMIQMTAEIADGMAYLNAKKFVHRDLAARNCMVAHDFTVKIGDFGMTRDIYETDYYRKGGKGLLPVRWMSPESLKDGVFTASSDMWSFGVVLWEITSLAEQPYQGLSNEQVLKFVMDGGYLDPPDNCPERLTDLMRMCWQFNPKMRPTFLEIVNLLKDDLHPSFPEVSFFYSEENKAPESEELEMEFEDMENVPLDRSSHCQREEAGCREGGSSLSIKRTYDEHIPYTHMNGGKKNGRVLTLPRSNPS
T1 sequence (P15127 27-759 partner limits assumed): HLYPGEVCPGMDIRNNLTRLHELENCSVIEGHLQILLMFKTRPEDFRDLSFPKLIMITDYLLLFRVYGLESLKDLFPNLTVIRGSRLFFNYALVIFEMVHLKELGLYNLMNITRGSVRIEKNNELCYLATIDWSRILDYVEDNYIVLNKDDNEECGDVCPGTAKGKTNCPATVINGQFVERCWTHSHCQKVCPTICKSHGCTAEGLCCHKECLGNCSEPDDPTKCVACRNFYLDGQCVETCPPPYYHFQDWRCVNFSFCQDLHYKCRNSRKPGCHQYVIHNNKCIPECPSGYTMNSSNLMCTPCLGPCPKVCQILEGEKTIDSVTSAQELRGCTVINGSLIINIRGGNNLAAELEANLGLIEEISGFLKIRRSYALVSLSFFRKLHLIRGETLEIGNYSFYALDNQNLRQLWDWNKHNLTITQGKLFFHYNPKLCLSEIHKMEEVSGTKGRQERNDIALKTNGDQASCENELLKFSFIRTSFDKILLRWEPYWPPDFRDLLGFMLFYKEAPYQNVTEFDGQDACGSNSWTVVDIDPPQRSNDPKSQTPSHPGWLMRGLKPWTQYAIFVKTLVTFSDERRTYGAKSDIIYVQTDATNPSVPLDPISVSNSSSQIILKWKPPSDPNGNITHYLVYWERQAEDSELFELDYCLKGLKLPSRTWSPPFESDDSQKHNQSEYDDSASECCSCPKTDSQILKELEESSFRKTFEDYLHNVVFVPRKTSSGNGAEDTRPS
Chain of insulin-like growth factor type 1 (IGF-1) receptor (P08069 741-1367 limits assumed): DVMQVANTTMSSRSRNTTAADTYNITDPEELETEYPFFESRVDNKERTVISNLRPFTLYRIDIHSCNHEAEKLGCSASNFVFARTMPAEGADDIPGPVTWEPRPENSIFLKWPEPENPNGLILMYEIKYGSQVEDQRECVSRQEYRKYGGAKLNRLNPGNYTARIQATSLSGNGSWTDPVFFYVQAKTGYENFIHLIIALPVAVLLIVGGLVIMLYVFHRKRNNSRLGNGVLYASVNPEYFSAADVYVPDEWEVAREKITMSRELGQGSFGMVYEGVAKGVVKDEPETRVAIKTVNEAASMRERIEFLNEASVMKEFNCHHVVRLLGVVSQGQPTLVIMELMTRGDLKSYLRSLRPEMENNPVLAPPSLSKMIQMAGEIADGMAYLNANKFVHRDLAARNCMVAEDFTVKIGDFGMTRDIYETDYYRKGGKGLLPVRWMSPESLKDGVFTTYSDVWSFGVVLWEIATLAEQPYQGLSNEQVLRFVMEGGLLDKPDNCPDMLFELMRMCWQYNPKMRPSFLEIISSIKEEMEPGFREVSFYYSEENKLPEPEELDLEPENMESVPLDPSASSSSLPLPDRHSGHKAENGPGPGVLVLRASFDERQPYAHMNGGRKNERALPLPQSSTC
Chain of insulin-like growth factor type 1 (IGF-1) receptor (P08069 31-736 partner limits assumed): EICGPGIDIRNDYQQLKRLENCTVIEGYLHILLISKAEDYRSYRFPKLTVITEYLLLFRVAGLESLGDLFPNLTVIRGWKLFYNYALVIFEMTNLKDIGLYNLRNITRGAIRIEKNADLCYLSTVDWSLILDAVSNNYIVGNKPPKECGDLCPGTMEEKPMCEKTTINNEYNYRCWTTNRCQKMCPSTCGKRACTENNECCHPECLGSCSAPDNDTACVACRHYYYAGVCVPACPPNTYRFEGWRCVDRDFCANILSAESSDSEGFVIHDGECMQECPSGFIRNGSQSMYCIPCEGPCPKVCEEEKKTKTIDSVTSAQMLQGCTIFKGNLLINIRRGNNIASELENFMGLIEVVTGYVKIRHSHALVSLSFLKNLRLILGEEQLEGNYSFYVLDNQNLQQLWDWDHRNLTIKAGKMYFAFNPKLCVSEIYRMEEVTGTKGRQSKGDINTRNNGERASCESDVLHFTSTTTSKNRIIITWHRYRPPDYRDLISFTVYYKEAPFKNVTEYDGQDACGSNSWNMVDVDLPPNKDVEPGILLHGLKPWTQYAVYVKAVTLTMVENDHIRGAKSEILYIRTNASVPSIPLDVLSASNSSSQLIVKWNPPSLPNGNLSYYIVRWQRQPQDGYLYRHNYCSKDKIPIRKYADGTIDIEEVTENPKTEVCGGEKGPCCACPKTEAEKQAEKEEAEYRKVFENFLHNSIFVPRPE
Chain of CYP2C9 (P11712 whole entry): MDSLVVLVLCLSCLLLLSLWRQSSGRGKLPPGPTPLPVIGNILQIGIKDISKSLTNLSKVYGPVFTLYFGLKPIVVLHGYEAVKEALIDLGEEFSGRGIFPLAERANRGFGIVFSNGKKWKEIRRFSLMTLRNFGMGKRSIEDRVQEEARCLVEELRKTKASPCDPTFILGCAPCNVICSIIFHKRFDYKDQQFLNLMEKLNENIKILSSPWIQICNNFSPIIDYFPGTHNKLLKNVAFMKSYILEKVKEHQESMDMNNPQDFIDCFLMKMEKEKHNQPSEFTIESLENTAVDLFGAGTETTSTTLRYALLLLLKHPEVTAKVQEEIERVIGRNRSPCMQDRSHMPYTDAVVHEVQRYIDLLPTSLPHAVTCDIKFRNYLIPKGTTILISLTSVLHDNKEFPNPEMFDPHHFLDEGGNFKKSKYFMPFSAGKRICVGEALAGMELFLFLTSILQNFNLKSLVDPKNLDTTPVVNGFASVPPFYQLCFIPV

## O=C(Nc1ccc2c(O)cc(S(=O)(=O)Nc3cccc(S(=O)(=O)O)c3)cc2c1)Nc1ccc2c(O)cc(S(=O)(=O)Nc3cccc(S(=O)(=O)O)c3)cc2c1 [Compound 15, 3-{[(4-hydroxy-7-{[N-(5-hydroxy-7-{[(3-sulfophenyl)amino]sulfonyl}(2-naphthyl))carbamoyl]amino}-2-naphthyl)sulfonyl]amino}benzenesulfonic acid]
[1]
  phosphorylation of the IGF-1 receptor: not to increase the phosphorylation
[2]; p.o. by gavage (FIG. 11)
  maximal reduction in blood glucose levels: 20%
  time of maximal reduction in blood glucose after administration: 4 h
[2]; p.o. by gavage, 6 hour experiment (FIG. 11)
  onset and duration of reduction in blood glucose levels: beginning one hour after administration and persisting for the entire 6 hours of the experiment
[3]
  phosphorylation of the insulin receptor in muscle: produced an increase in phosphorylation of the insulin receptor
[4]; Mus musculus, EC (effective concentration) for increase in glucose transport, 14C-2-deoxy-D-glucose, 3T3 L1 cells, read-out: Concentration (μM) to reach >150% activity of vehicle control
  EC (150% of vehicle control): 3.2 µM
[4]; in the presence or absence of insulin (FIG. 3)
  glucose uptake of cells: increase in glucose uptake of cells
[5]
  GLUT4 translocation (immunofluorescence): produced apparent translocation of GLUT4 to the cell surface
[6]
  inhibition of catalytic activity of CYP2C9: did not inhibit
